# Target: T1, Adenosine receptor A1 (Homo sapiens) (UniProt P30542)
# T1 sequence (whole entry): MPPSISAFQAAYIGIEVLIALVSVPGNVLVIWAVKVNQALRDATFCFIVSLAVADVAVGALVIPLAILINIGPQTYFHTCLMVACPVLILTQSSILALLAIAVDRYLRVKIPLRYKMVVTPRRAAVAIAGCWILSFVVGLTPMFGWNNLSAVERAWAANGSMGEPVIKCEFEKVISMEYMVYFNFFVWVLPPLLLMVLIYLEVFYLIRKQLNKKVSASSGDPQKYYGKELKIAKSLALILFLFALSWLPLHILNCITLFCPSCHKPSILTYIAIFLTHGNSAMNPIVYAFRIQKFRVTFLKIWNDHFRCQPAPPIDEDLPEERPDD
# Experiment: Allosteric enhancing activity at human adenosine A1 receptor expressed in CHO cells assessed as increase in CCPA-induced [3H]DPCPX displacement at 10 uM after 90 mins relative to control
# Format: cell-based
row,Ratio Ki,Compound
1,1.1,Cc1sc(N)c(C(=O)c2ccc(Cl)cc2)c1CN1CCN(c2ccc([N+](=O)[O-])cc2)CC1
2,7.9,Nc1sc(-c2ccccc2)c(CN2CCN(c3ccc(Cl)cc3)CC2)c1C(=O)c1ccc(Cl)cc1
3,6.8,Cc1sc(N)c(C(=O)c2ccc(Cl)cc2)c1CN1CCN(c2ccc(C(F)(F)F)cc2)CC1
4,9.4,Nc1sc(-c2ccccc2)c(CN2CCN(c3ccc(F)cc3)CC2)c1C(=O)c1ccc(Cl)cc1

# Continued, molecule first:
row,Compound,Ratio Ki
1,Nc1sc(-c2ccc(Cl)cc2)c(CN2CCN(Cc3ccccc3)CC2)c1C(=O)c1ccc(Cl)cc1,6.8
2,Nc1sc(-c2ccccc2)c(CN2CCN(c3ccc(Cl)c(Cl)c3)CC2)c1C(=O)c1ccc(Cl)cc1,3
3,Nc1sc(-c2ccc(F)cc2)c(CN2CCN(c3ccc(F)cc3)CC2)c1C(=O)c1ccc(Cl)cc1,9.5
4,Nc1sc(-c2ccc(F)cc2)c(CN2CCN(c3ccccc3)CC2)c1C(=O)c1ccc(Cl)cc1,13.3

# Target: T1, Adenosine receptor A1 (Homo sapiens)
# Experiment: Allosteric enhancing activity at human adenosine A1 receptor expressed in CHO cells assessed as increase in [3H]-2-chloro-N6-cyclopentyladenosine Bmax at 10 uM after 90 mins relative to control
# Format: cell-based
row,fold change (FC),Compound
1,1.3,Cc1sc(N)c(C(=O)c2ccc(Cl)cc2)c1CN1CCN(c2ccc([N+](=O)[O-])cc2)CC1
2,9.7,Nc1sc(-c2ccccc2)c(CN2CCN(c3ccc(Cl)cc3)CC2)c1C(=O)c1ccc(Cl)cc1
3,7.6,Cc1sc(N)c(C(=O)c2ccc(Cl)cc2)c1CN1CCN(c2ccc(C(F)(F)F)cc2)CC1
4,11.1,Nc1sc(-c2ccccc2)c(CN2CCN(c3ccc(F)cc3)CC2)c1C(=O)c1ccc(Cl)cc1

# The remaining lines, values behind:
row,Compound,fold change (FC)
1,Nc1sc(-c2ccc(Cl)cc2)c(CN2CCN(Cc3ccccc3)CC2)c1C(=O)c1ccc(Cl)cc1,7.7
2,Nc1sc(-c2ccccc2)c(CN2CCN(c3ccc(Cl)c(Cl)c3)CC2)c1C(=O)c1ccc(Cl)cc1,6.8
3,Nc1sc(-c2ccc(F)cc2)c(CN2CCN(c3ccc(F)cc3)CC2)c1C(=O)c1ccc(Cl)cc1,11.7
4,Nc1sc(-c2ccc(F)cc2)c(CN2CCN(c3ccccc3)CC2)c1C(=O)c1ccc(Cl)cc1,14.1

# Target: T2, Adenosine receptor A3 (Homo sapiens) (UniProt P0DMS8)
# T2 sequence (whole entry): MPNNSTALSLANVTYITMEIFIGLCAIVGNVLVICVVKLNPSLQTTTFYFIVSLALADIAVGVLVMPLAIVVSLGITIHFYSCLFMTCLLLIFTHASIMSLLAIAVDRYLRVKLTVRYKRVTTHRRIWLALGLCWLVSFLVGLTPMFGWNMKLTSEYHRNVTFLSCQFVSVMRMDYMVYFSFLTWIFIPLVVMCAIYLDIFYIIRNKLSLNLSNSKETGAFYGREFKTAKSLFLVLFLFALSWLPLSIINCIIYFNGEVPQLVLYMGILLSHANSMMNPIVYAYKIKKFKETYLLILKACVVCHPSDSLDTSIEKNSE
# Experiment: Displacement of [3H]MRE-3008-F20 from human adenosine A3 receptor expressed in CHO cells at 10 uM after 120 mins by scintillation counting
# Format: cell-based
row,inhibition,Compound
1,< 12%,Cc1sc(N)c(C(=O)c2ccc(Cl)cc2)c1CN1CCN(c2ccc([N+](=O)[O-])cc2)CC1
2,< 12%,Nc1sc(-c2ccccc2)c(CN2CCN(c3ccc(Cl)cc3)CC2)c1C(=O)c1ccc(Cl)cc1
3,< 12%,Cc1sc(N)c(C(=O)c2ccc(Cl)cc2)c1CN1CCN(c2ccc(C(F)(F)F)cc2)CC1
4,< 12%,Nc1sc(-c2ccccc2)c(CN2CCN(c3ccc(F)cc3)CC2)c1C(=O)c1ccc(Cl)cc1

# The remaining lines, values behind:
row,Compound,inhibition
1,Nc1sc(-c2ccc(Cl)cc2)c(CN2CCN(Cc3ccccc3)CC2)c1C(=O)c1ccc(Cl)cc1,< 12%
2,Nc1sc(-c2ccccc2)c(CN2CCN(c3ccc(Cl)c(Cl)c3)CC2)c1C(=O)c1ccc(Cl)cc1,< 12%
3,Nc1sc(-c2ccc(F)cc2)c(CN2CCN(c3ccc(F)cc3)CC2)c1C(=O)c1ccc(Cl)cc1,< 12%
4,Nc1sc(-c2ccc(F)cc2)c(CN2CCN(c3ccccc3)CC2)c1C(=O)c1ccc(Cl)cc1,< 12%

# Target: Adenosine receptor A2a (Homo sapiens) (UniProt P29274)
# Experiment: Displacement of [3H]ZM241385 from human adenosine A2A receptor expressed in CHO cells at 10 uM after 120 mins by scintillation counting
# Format: cell-based
# Sequence of Adenosine receptor A2a (Homo sapiens) (P29274 whole entry): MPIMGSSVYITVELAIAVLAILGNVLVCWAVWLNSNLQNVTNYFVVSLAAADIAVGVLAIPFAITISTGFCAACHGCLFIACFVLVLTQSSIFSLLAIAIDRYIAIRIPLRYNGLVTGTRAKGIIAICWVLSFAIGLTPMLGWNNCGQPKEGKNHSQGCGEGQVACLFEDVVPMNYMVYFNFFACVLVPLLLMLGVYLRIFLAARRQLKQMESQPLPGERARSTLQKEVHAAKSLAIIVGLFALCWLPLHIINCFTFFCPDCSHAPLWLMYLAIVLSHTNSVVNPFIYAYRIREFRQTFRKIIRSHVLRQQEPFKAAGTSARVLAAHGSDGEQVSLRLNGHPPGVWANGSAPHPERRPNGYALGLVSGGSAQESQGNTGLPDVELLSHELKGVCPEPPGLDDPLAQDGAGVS
row,inhibition,Compound
1,< 12%,Cc1sc(N)c(C(=O)c2ccc(Cl)cc2)c1CN1CCN(c2ccc([N+](=O)[O-])cc2)CC1
2,< 12%,Nc1sc(-c2ccccc2)c(CN2CCN(c3ccc(Cl)cc3)CC2)c1C(=O)c1ccc(Cl)cc1
3,< 12%,Cc1sc(N)c(C(=O)c2ccc(Cl)cc2)c1CN1CCN(c2ccc(C(F)(F)F)cc2)CC1
4,< 12%,Nc1sc(-c2ccccc2)c(CN2CCN(c3ccc(F)cc3)CC2)c1C(=O)c1ccc(Cl)cc1

# Continued, molecule first:
row,Compound,inhibition
1,Nc1sc(-c2ccc(Cl)cc2)c(CN2CCN(Cc3ccccc3)CC2)c1C(=O)c1ccc(Cl)cc1,< 12%
2,Nc1sc(-c2ccccc2)c(CN2CCN(c3ccc(Cl)c(Cl)c3)CC2)c1C(=O)c1ccc(Cl)cc1,< 12%
3,Nc1sc(-c2ccc(F)cc2)c(CN2CCN(c3ccc(F)cc3)CC2)c1C(=O)c1ccc(Cl)cc1,< 12%
4,Nc1sc(-c2ccc(F)cc2)c(CN2CCN(c3ccccc3)CC2)c1C(=O)c1ccc(Cl)cc1,< 12%

# Target: T1, Adenosine receptor A1 (Homo sapiens)
# Experiment: Displacement of [3H]DPCPX from human adenosine A1 receptor expressed in CHO cells at 10 uM after 120 mins by scintillation counting
# Format: cell-based
row,inhibition,Compound
1,< 12%,Cc1sc(N)c(C(=O)c2ccc(Cl)cc2)c1CN1CCN(c2ccc([N+](=O)[O-])cc2)CC1
2,< 12%,Nc1sc(-c2ccccc2)c(CN2CCN(c3ccc(Cl)cc3)CC2)c1C(=O)c1ccc(Cl)cc1
3,< 12%,Cc1sc(N)c(C(=O)c2ccc(Cl)cc2)c1CN1CCN(c2ccc(C(F)(F)F)cc2)CC1
4,< 12%,Nc1sc(-c2ccccc2)c(CN2CCN(c3ccc(F)cc3)CC2)c1C(=O)c1ccc(Cl)cc1

# The remaining lines, values behind:
row,Compound,inhibition
1,Nc1sc(-c2ccc(Cl)cc2)c(CN2CCN(Cc3ccccc3)CC2)c1C(=O)c1ccc(Cl)cc1,< 12%
2,Nc1sc(-c2ccccc2)c(CN2CCN(c3ccc(Cl)c(Cl)c3)CC2)c1C(=O)c1ccc(Cl)cc1,< 12%
3,Nc1sc(-c2ccc(F)cc2)c(CN2CCN(c3ccc(F)cc3)CC2)c1C(=O)c1ccc(Cl)cc1,< 12%
4,Nc1sc(-c2ccc(F)cc2)c(CN2CCN(c3ccccc3)CC2)c1C(=O)c1ccc(Cl)cc1,< 12%

# Target: T1, Adenosine receptor A1 (Homo sapiens)
# Experiment: Allosteric enhancing activity at human adenosine A1 receptor expressed in CHO cells assessed as inhibition of forskolin-stimulated cAMP accumulation at 100 nM incubated for 10 mins prior to forskolin-stimulation measured after 5 mins by competition protein binding assay in presence of 2-chloro-N6-cyclopentyladenosine
# Format: functional, cell-based
row,inhibition,Compound
1,13%,Cc1sc(N)c(C(=O)c2ccc(Cl)cc2)c1CN1CCN(c2ccc([N+](=O)[O-])cc2)CC1
2,67%,Nc1sc(-c2ccccc2)c(CN2CCN(c3ccc(Cl)cc3)CC2)c1C(=O)c1ccc(Cl)cc1
3,61%,Cc1sc(N)c(C(=O)c2ccc(Cl)cc2)c1CN1CCN(c2ccc(C(F)(F)F)cc2)CC1
4,71%,Nc1sc(-c2ccccc2)c(CN2CCN(c3ccc(F)cc3)CC2)c1C(=O)c1ccc(Cl)cc1

# More lines, now with the values behind:
row,Compound,inhibition
1,Nc1sc(-c2ccc(Cl)cc2)c(CN2CCN(Cc3ccccc3)CC2)c1C(=O)c1ccc(Cl)cc1,63%
2,Nc1sc(-c2ccccc2)c(CN2CCN(c3ccc(Cl)c(Cl)c3)CC2)c1C(=O)c1ccc(Cl)cc1,56%
3,Nc1sc(-c2ccc(F)cc2)c(CN2CCN(c3ccc(F)cc3)CC2)c1C(=O)c1ccc(Cl)cc1,77%
4,Nc1sc(-c2ccc(F)cc2)c(CN2CCN(c3ccccc3)CC2)c1C(=O)c1ccc(Cl)cc1,81%

# Target: T1, Adenosine receptor A1 (Homo sapiens)
# Experiment: Allosteric enhancing activity at human adenosine A1 receptor expressed in CHO cells assessed as inhibition of forskolin-stimulated cAMP accumulation at 10 uM incubated for 10 mins prior to forskolin-stimulation measured after 5 mins by competition protein binding assay
# Format: functional, cell-based
row,inhibition,Compound
1,9%,Cc1sc(N)c(C(=O)c2ccc(Cl)cc2)c1CN1CCN(c2ccc([N+](=O)[O-])cc2)CC1
2,68%,Nc1sc(-c2ccccc2)c(CN2CCN(c3ccc(Cl)cc3)CC2)c1C(=O)c1ccc(Cl)cc1
3,60%,Cc1sc(N)c(C(=O)c2ccc(Cl)cc2)c1CN1CCN(c2ccc(C(F)(F)F)cc2)CC1
4,77%,Nc1sc(-c2ccccc2)c(CN2CCN(c3ccc(F)cc3)CC2)c1C(=O)c1ccc(Cl)cc1

# The remaining lines, values behind:
row,Compound,inhibition
1,Nc1sc(-c2ccc(Cl)cc2)c(CN2CCN(Cc3ccccc3)CC2)c1C(=O)c1ccc(Cl)cc1,65%
2,Nc1sc(-c2ccccc2)c(CN2CCN(c3ccc(Cl)c(Cl)c3)CC2)c1C(=O)c1ccc(Cl)cc1,55%
3,Nc1sc(-c2ccc(F)cc2)c(CN2CCN(c3ccc(F)cc3)CC2)c1C(=O)c1ccc(Cl)cc1,82%
4,Nc1sc(-c2ccc(F)cc2)c(CN2CCN(c3ccccc3)CC2)c1C(=O)c1ccc(Cl)cc1,89%

# — ChEMBL document CHEMBL2169819, “Synthesis and biological evaluation of 2-amino-3-(4-chlorobenzoyl)-4-[(4-arylpiperazin-1-yl)methyl]-5-substituted-thiophenes. effect of the 5-modification on allosteric enhancer activity at the A1 adenosine receptor” (J Med Chem, 2012)
